Data on twelve compounds can be found in US12077555B2, “STAT degraders and uses thereof” (Kymera Therapeutics, Inc., priority 2019, dated 2024).

A value given as a limit tells only on which side of the number the result lay.

The assay concerns the target STAT3 (Homo sapiens, UniProt P40763). The experiment in a line: STAT3 HiBiT degradation assay in transfected A549 cells. Format: cell-based. Also noted: expressed in transfected cells; host or cells: A549. The following applies: A549, 24 h; read-out: STAT3 HiBiT A549 degradation 24 h: Average external-Abs DC50. Here is the method:
Compound preparation and Cell seeding: The transfected A549 cells were harvested from dish into cell culture medium and cell numbers counted. Cells were diluted with culture medium to the desired density and 30 μL of cell suspension (about 2000 cells/well) were added into each well of a 384-well cell culture plate as designated and transferred into 37° C. 5% CO2 incubator for 24 h. Compounds were dissolved to 10 mM stock solution and 12 μL of the stock solution was transferred to a 384 LDV-plate. 3 fold, 10-point dilution was performed by transferring 4 μL compound into 8 μL DMSO using a TECAN (EVO200) liquid handler. 30 μL of diluted compound from compound source plate was transferred into the cell plate as designated by using Echo550 and transferred into 37° C. 5% CO2 incubator for 24 h.
Detection: Plates were removed from incubators and equilibrated at room temperature for 15 minutes. Nano-Glo Hibit Lytic Detection reagent (Promega Cat #N3040) was thawed and equilibrated to room temperature before the experiment. 30 μL of Nano-Glo Hibit Lytic Detection reagent was added into each well to be detected. The plates were held at room temperature for 10 min followed by reading on EnSpire.
Data analysis: The remaining activity was calculated following the formula: Remaining Activity (%)=100%×(Lumsample−LumNC)/(LumPC−LumNC). Calculate the IC50 by fitting the curve using Xlfit (v5.3.1.3), equation 201: fit=(A+((B−A)/(1+((x/C)^D)))); A: Bottom; B: Top; C: IC50; and D: Slope.
The letter codes for STAT3 DC50 include: A (<0.01 μM), B (0.01-0.1 μM), C (0.1-1.0 μM), and D (>1.0 μM).

STAT3, sequence (P40763 whole entry): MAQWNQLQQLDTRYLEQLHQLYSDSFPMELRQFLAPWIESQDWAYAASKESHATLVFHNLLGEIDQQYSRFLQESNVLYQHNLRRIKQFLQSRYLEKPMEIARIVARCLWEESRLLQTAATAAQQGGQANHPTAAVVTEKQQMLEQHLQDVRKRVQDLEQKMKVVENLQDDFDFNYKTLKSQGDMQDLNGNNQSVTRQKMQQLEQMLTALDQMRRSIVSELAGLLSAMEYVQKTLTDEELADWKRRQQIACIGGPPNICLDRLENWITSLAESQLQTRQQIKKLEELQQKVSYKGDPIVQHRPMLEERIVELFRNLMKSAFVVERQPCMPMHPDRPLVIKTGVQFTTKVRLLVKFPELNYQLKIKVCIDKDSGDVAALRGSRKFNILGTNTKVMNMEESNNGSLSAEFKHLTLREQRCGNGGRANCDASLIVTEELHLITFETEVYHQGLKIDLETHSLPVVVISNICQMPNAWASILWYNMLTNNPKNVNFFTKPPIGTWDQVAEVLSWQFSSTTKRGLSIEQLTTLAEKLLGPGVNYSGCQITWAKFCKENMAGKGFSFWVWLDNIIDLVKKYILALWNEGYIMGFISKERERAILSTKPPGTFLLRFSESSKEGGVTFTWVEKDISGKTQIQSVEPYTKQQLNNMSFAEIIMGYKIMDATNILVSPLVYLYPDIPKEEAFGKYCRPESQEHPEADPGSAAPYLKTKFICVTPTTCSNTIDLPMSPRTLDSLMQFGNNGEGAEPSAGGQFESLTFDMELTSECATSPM

Regarding `Cc1cc(CCCCCC(=O)N[C@H](C(=O)N2C[C@H](O)C[C@H]2C(=O)N[C@@H](C)c2ccc(-c3scnc3C)cc2)C(C)(C)C)cc(NC(=O)[C@H](CCC(N)=O)NC(=O)[C@@H]2Cc3cccc4c3N2C(=O)[C@@H](NC(=O)c2cc3cc(C(=O)P(=O)(O)O)ccc3[nH]2)CC4)c1` [Compound I-258, 2-[[(2S,11S)-2-[[(1S)-3-carbamoyl-1-[[3-(5-[[(2S)-1-[(2S,4R)-4-hydroxy-2-[[(1S)-1-[4-(4-methyl-1,3-thiazol-5-yl)phenyl]ethyl]carbamoyl]pyrrolidin-1-yl]-3,3-dimethyl-1-oxobutan-2-yl]carbamoyl]pentyl)-5-methylphenyl]carbamoyl]propyl]carbamoyl]-12-oxo-1-azatricyclo[6.4.1.0^[4,13]]trideca-4(13),5,7-trien-11-yl]carbamoyl]-1H-indole-5-carbonylphosphonic acid], the DC50 is < 10 nM.
The figure for `Cn1c(=O)n(C2CCC(=O)NC2=O)c2ccc(CC[C@H]3CC[C@H](C(=O)N4CC[C@H]5CC[C@@H](C(=O)N[C@@H](CCC(N)=O)C(=O)NC(c6ccccc6)c6ccccc6)N5C(=O)[C@@H](NC(=O)c5cc6cc(C(=O)P(=O)(O)O)ccc6[nH]5)C4)CC3)cc21` (stereo partly drawn) [Compound I-203, 2-[[(5S,8S,10aR)-8-[[(1S)-3-carbamoyl-1-(diphenylmethylcarbamoyl)propyl]carbamoyl]-6-oxo-3-[(1r,4r)-4-[2-[1-(2,6-dioxopiperidin-3-yl)-3-methyl-2-oxo-1,3-benzodiazol-5-yl]ethyl]cyclohexanecarbonyl]-octahydropyrrolo[1,2-a][1,5]diazocin-5-yl]carbamoyl]-1H-indole-5-carbonylphosphonic acid] is 10 to 100 nM; for `C[C@@H](OCc1ccccc1)[C@H](CCC(N)=O)NC(=O)[C@@H]1CC[C@@H]2CCN(C(=O)CCCCCCc3ccc4c(c3)n(C)c(=O)n4C3CCC(=O)NC3=O)C[C@H](NC(=O)c3cc4cc(C(=O)P(=O)(O)O)ccc4[nH]3)C(=O)N21` (stereo partly drawn) [Compound I-184, 2-[[(5S8S,10aR)-8-[[(3S,4R)-4-(benzyloxy)-1-carbamoylpentan-3-yl]carbamoyl]-3-[7-[1-(2,6-dioxopiperidin-3-yl)-3-methyl-2-oxo-1,3-benzodiazol-5-yl]heptanoyl]-6-oxo-octahydropyrrolo[1,2-a][1,5]diazocin-5-yl]carbamoyl]-1H-indole-5-carbonylphosphonic acid] it is 100 to 1000 nM; for `Cn1c(=O)n(C2CCC(=O)NC2=O)c2ccc(N3CCN(CCCC(=O)N4CC[C@H]5CC[C@@H](C(=O)N[C@@H](CCC(N)=O)C(=O)NC(c6ccccc6)c6ccccc6)N5C(=O)[C@@H](NC(=O)c5cc6cc(C(=O)P(=O)(O)O)ccc6[nH]5)C4)CC3)cc21` (stereo partly drawn) [Compound I-168, 2-[[(5S,8S,10aR)-8-[[(1S)-3-carbamoyl-1-(diphenylmethylcarbamoyl)propyl]carbamoyl]-3-(4-[4-[1-(2,6-dioxopiperidin-3-yl)-3-methyl-2-oxo-1,3-benzodiazol-5-yl]piperazin-1-yl]butanoyl)-6-oxo-octahydropyrrolo[1,2-a][1,5]diazocin-5-yl]carbamoyl]-1H-indole-5-carbonylphosphonic acid] it is > 1000 nM.
Turning to `Cn1c(=O)n(C2CCC(=O)NC2=O)c2ccc(CC[C@H]3CC[C@@H](C(=O)N4CC[C@H]5CC[C@@H](C(=O)N[C@@H](CCC(N)=O)C(=O)NCc6ccc(S(C)(=O)=O)cc6)N5C(=O)[C@@H](NC(=O)c5cc6cc(C(=O)P(=O)(O)O)ccc6[nH]5)C4)CC3)cc21` (stereo partly drawn) [Compound I-294, (2-(((5S,8S,10aR)-8-(((S)-5-amino-1-((4-(methylsulfonyl)benzyl)amino)-1,5-dioxopentan-2-yl)carbamoyl)-3-((1r,4R)-4-(2-(1-(2,6-dioxopiperidin-3-yl)-3-methyl-2-oxo-2,3-dihydro-1H-benzo[d]imidazol-5-yl)ethyl)cyclohexane-1-carbonyl)-6-oxodecahydropyrrolo[1,2-a][1,5]diazocin-5-yl)carbamoyl)-1H-indole-5-carbonyl)phosphonic acid], the DC50 is < 10 nM.
The value for `Cc1ncsc1-c1ccc([C@H](C)NC(=O)[C@@H]2C[C@@H](O)CN2C(=O)[C@@H](NC(=O)CCCCCc2cccc(NC[C@H](CCC(N)=O)NC(=O)[C@@H]3Cc4cccc5c4N3C(=O)[C@@H](NC(=O)c3cc4cc(C(=O)P(=O)(O)O)ccc4[nH]3)CC5)c2F)C(C)(C)C)cc1` [Compound I-265, diammonium 2-[[(2S,11S)-2-[(4-carbamoyl-1-[[2-fluoro-3-(5-[[(2S)-1-[(2S,4R)-4-hydroxy-2-[[(1S)-1-[4-(4-methyl-1,3-thiazol-5-yl)phenyl]ethyl]carbamoyl]pyrrolidin-1-yl]-3,3-dimethyl-1-oxobutan-2-yl]carbamoyl]pentyl)phenyl]amino]butan-2-yl)carbamoyl]-12-oxo-1-azatricyclo[6.4.1.0^[4,13]]trideca-4(13),5,7-trien-11-yl]carbamoyl]-1H-indole-5-carbonylphosphonate] was 10 to 100 nM; that for `CC(=O)O[C@@H]1C[C@@H](C(=O)N[C@@H](C)c2ccc(-c3scnc3C)cc2)N(C(=O)[C@@H](NC(=O)CCCCCc2cccc(OC[C@H](CCC(N)=O)NC(=O)[C@@H]3Cc4cccc5c4N3C(=O)[C@@H](NC(=O)c3cc4cc(C(=O)P(=O)(O)O)ccc4[nH]3)CC5)c2F)C(C)(C)C)C1` [Compound I-272] was < 10 nM; that for `Cc1cc(CCCCCC(=O)N[C@H](C(=O)N2C[C@H](O)C[C@H]2C(=O)N[C@@H](C)c2ccc(-c3scnc3C)cc2)C(C)(C)C)cc(OC[C@H](CCC(N)=O)NC(=O)[C@@H]2Cc3cccc4c3N2C(=O)[C@@H](NC(=O)c2cc3cc(C(=O)P(=O)(O)O)ccc3[nH]2)CC4)c1` [Compound I-213, 2-[[(2S,11S)-2-[[(2S)-4-carbamoyl-1-[3-(5-[[(2S)-1-[(2S,4R)-4-hydroxy-2-[[(1S)-1-[4-(4-methyl-1,3-thiazol-5-yl)phenyl]ethyl]carbamoyl]pyrrolidin-1-yl]-3,3-dimethyl-1-oxobutan-2-yl]carbamoyl]pentyl)-5-methylphenoxy]butan-2-yl]carbamoyl]-12-oxo-1-azatricyclo[6.4.1.0^[4,13]]trideca-4(13),5,7-trien-11-yl]carbamoyl]-1H-indole-5-carbonylphosphonic acid] was < 10 nM.
With `Cc1ncsc1-c1ccc(CNC(=O)[C@@H]2C[C@@H](O)CN2C(=O)[C@@H](NC(=O)CCCCCc2cccc(CNC(=O)[C@H](CCC(N)=O)NC(=O)[C@@H]3Cc4cccc5c4N3C(=O)[C@@H](NC(=O)c3cc4cc(C(=O)P(=O)(O)O)ccc4[nH]3)CC5)c2)C(C)(C)C)cc1` [Compound I-222, 2-[[(2S,11S)-2-[[(1S)-3-carbamoyl-1--([[3-(5-[[(2S)-1-[(2S,4R)-4-hydroxy-2-([[4-(4-methyl-1,3-thiazol-5-yl)phenyl]methyl]carbamoyl)pyrrolidin-1-yl]-3,3-dimethyl-1-oxobutan-2-yl]carbamoyl]pentyl)phenyl]methyl]carbamoyl)propyl]carbamoyl]-12-oxo-1-azatricyclo[6.4.1.0^[4,13]]trideca-4(13),5,7-trien-11-yl]carbamoyl]-1H-indole-5-carbonylphosphonic acid], the 50% degradation concentration (DC50) is > 1000 nM.
The figure for `Cc1ncsc1-c1ccc([C@H](C)NC(=O)[C@@H]2C[C@@H](O)CN2C(=O)[C@@H](NC(=O)CCCCc2ccc(CCC[C@H](CCC(N)=O)NC(=O)[C@@H]3Cc4cccc5c4N3C(=O)[C@@H](NC(=O)c3cc4cc(C(=O)P(=O)(O)O)ccc4[nH]3)CC5)cc2)C(C)(C)C)cc1` [Compound I-237, diammonium 2-[[(2S,11S)-2-[[(3R)-1-carbamoyl-6-[4-(4-[[(2S)-1-[(2S,4R)-4-hydroxy-2-[[(1S)-1-[4-(4-methyl-1,3-thiazol-5-yl)phenyl]ethyl]carbamoyl]pyrrolidin-1-yl]-3,3-dimethyl-1-oxobutan-2-yl]carbamoyl]butyl)phenyl]hexan-3-yl]carbamoyl]-12-oxo-1-azatricyclo[6.4.1.0^[4,13]]trideca-4(13),5,7-trien-11-yl]carbamoyl]-1H-indole-5-carbonylphosphonate] is 10 to 100 nM.
For `Cc1ncsc1-c1ccc([C@H](C)NC(=O)[C@@H]2C[C@@H](O)CN2C(=O)[C@@H](NC(=O)OCCCCc2cccc(OC[C@H](CCC(N)=O)NC(=O)[C@@H]3Cc4cccc5c4N3C(=O)[C@@H](NC(=O)c3cc4cc(C(=O)P(=O)(O)O)ccc4[nH]3)CC5)c2F)C(C)(C)C)cc1` [Compound I-281], the DC50 was < 10 nM.
The value for `Cn1c(=O)n(C2CCC(=O)NC2=O)c2ccc(CCCCCCc3cc4c5c(c3)C[C@@H](C(=O)N[C@@H](CCC(N)=O)c3ccccn3)N5C(=O)[C@@H](NC(=O)c3cc5cc(C(=O)P(=O)(O)O)ccc5[nH]3)CC4)cc21` (stereo partly drawn) [Compound I-277, 2-[[(2S,11S)-2-[[(1S)-3-carbamoyl-1-(pyridin-2-yl)propyl]carbamoyl]-6-[6-[1-(2,6-dioxopiperidin-3-yl)-3-methyl-2-oxo-1,3-benzodiazol-5-yl]hexyl]-12-oxo-1-azatricyclo[6.4.1.0^[4,13]]trideca-4(13),5,7-trien-11-yl]carbamoyl]-1H-indole-5-carbonylphosphonic acid] was 10 to 100 nM.
